From PubChem BioAssay (NCI)
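48-hour exposure; five concentrations; linearly interpolated endpoints. TGI: concentration producing complete growth inhibition.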

Legend:
Experiment in all cases: DTP human tumour cell line panel, 48 h
[1] = test system: OVCAR-5 ovarian
[2] = test system: U251 CNS
[3] = test system: MOLT-4 leukemia
[4] = test system: IGROV1 ovarian
[5] = test system: UACC-257 melanoma
[6] = test system: SK-OV-3 ovarian
[7] = test system: SN12C renal
[8] = test system: COLO 205 colon
[9] = test system: MDA-MB-231 breast
[10] = test system: SK-MEL-28 melanoma
[11] = test system: SNB-75 CNS
[12] = test system: MDA-N
[13] = test system: SNB-19 CNS
[14] = test system: NCI-H522 lung
[15] = test system: HT29 colon
[16] = test system: HOP-92 NSCLC
[17] = test system: OVCAR-4 ovarian
[18] = test system: HCT-116 colon
[19] = test system: SF-295 CNS
[20] = test system: OVCAR-3 ovarian
[21] = test system: LOX IMVI melanoma
[22] = test system: UACC-62 melanoma
[23] = test system: HCC-2998 colon
[24] = test system: CCRF-CEM leukemia
[25] = test system: SR leukemia
[26] = test system: TK-10 renal
[27] = test system: PC-3 prostate
[28] = test system: RPMI-8226 leukemia
[29] = test system: MDA-MB-435
[30] = test system: NCI-H460 lung
[31] = test system: RXF 393 renal
[32] = test system: HL-60(TB) leukemia
[33] = test system: BT-549 breast
[34] = test system: MCF7 breast
[35] = test system: SF-539 CNS
[36] = test system: A498 renal
[37] = test system: 786-0 renal
[38] = test system: A549 NSCLC
[39] = test system: DU-145 prostate
[40] = test system: K-562 leukemia
[41] = test system: KM12 colon
[42] = test system: T-47D breast
[43] = test system: NCI-H23 lung
[44] = test system: SW-620 colon
[45] = test system: EKVX NSCLC
[46] = test system: HOP-62 NSCLC
[47] = test system: SF-268 CNS
[48] = test system: UO-31 renal
[49] = test system: MALME-3M melanoma
[50] = test system: M14 melanoma
[51] = test system: SK-MEL-5 melanoma
[52] = test system: NCI-H226 lung
[53] = test system: ACHN renal
[54] = test system: OVCAR-8 ovarian
[55] = test system: HCT-15 colon
[56] = test system: CAKI-1 renal
[57] = test system: SK-MEL-2 melanoma

In the case of `Cc1nc2ccccc2c(=O)n1NC(=O)c1ccc(N)cc1`, the TGI [1] is reported as over 100 µM, the TGI [2] is reported as over 100 µM and the TGI [3] is reported as over 100 µM. For the same compound, the TGI [4] was over 100 µM, the TGI [5] was over 100 µM and the TGI [6] was over 100 µM. It also gave a TGI [7] of over 100 µM, a TGI [8] of over 100 µM and a TGI [9] of over 100 µM. For the same compound, the TGI [10] was over 100 µM, the TGI [11] was over 100 µM and the TGI [12] was over 100 µM. For the same compound, the TGI [13] was over 100 µM, the TGI [14] was over 100 µM and the TGI [15] was over 100 µM. The TGI [16] was over 100 µM, the TGI [17] was over 100 µM and the TGI [18] was over 100 µM. It also gave a TGI [19] of over 100 µM, a TGI [20] of over 100 µM and a TGI [21] of over 100 µM. It also gave a TGI [22] of over 100 µM, a TGI [23] of over 100 µM and a TGI [24] of over 100 µM. It also gave a TGI [25] of over 100 µM, a TGI [26] of over 100 µM and a TGI [27] of over 100 µM. It also gave a TGI [28] of over 100 µM, a TGI [29] of over 100 µM and a TGI [30] of over 100 µM. It also gave a TGI [31] of over 100 µM, a TGI [32] of over 100 µM and a TGI [33] of over 100 µM. The TGI [34] was over 100 µM, the TGI [35] was over 100 µM and the TGI [36] was over 100 µM. The TGI [37] was over 100 µM, the TGI [38] was over 100 µM and the TGI [39] was over 100 µM. It also gave a TGI [40] of over 100 µM, a TGI [41] of over 100 µM and a TGI [42] of over 100 µM. For the same compound, the TGI [43] was over 100 µM, the TGI [44] was over 100 µM and the TGI [45] was over 100 µM. For the same compound, the TGI [46] was over 100 µM, the TGI [47] was over 100 µM and the TGI [48] was over 100 µM. The TGI [49] was over 100 µM, the TGI [50] was over 100 µM and the TGI [51] was over 100 µM. The TGI [52] was over 100 µM, the TGI [53] was over 100 µM and the TGI [54] was over 100 µM.
In the case of `CCc1c(-c2ccccc2)[nH]c2ccccc2c1=O`, the TGI [1] is reported as over 100 µM, the TGI [2] is reported as over 100 µM and the TGI [3] is reported as over 100 µM. For the same compound, the TGI [5] was over 100 µM, the TGI [6] was over 100 µM and the TGI [7] was over 100 µM. For the same compound, the TGI [9] was over 100 µM, the TGI [10] was over 100 µM and the TGI [12] was over 100 µM. The TGI [13] was over 100 µM, the TGI [15] was over 100 µM and the TGI [17] was over 100 µM. It also gave a TGI [18] of over 100 µM, a TGI [20] of over 100 µM and a TGI [21] of over 100 µM. For the same compound, the TGI [22] was over 100 µM, the TGI [23] was over 100 µM and the TGI [24] was over 100 µM. For the same compound, the TGI [25] was over 100 µM, the TGI [26] was over 100 µM and the TGI [28] was over 100 µM. For the same compound, the TGI [29] was over 100 µM, the TGI [30] was over 100 µM and the TGI [55] was over 100 µM. The TGI [31] was over 100 µM, the TGI [32] was over 100 µM and the TGI [33] was over 100 µM. For the same compound, the TGI [34] was over 100 µM, the TGI [35] was over 100 µM and the TGI [36] was over 100 µM. It also gave a TGI [38] of over 100 µM, a TGI [39] of over 100 µM and a TGI [40] of over 100 µM. The TGI [41] was over 100 µM, the TGI [42] was over 100 µM and the TGI [56] was over 100 µM. For the same compound, the TGI [57] was over 100 µM, the TGI [43] was over 100 µM and the TGI [45] was over 100 µM. The TGI [46] was over 100 µM, the TGI [47] was over 100 µM and the TGI [48] was 0.266 µM. The TGI [49] was over 100 µM, the TGI [50] was over 100 µM and the TGI [51] was over 100 µM. The TGI [52] was 84 µM and the TGI [53] was over 100 µM.
